# Measurements: patent publication US6943171B2, “Polycyclic guanine derivative phosphodiesterase V inhibitors” (Schering Corporation, priority 2001, dated 2005)
# pIC50: −log10 of the molar value.
# Molecular target: PDE V isoenzyme (Homo sapiens, UniProt O76074)
# Assay: PDE V isoenzyme inhibition (PDE V IC50)
# Type: biochemical
# Details: bound printed as 'about <'
# From the text: The compounds of the invention can be useful for inhibiting PDE V isoenzymes. Isoenzyme activity (potency) and isoenzyme selectivity for a compound can be evaluated in a number of ways. […] Similarly, an IC50 value may be obtained for other PDE isoenzymes, such as the PDE VI isoenzyme. Isoenzyme selectivity in this respect may be defined as the activity (potency) of a PDE inhibitor compound for a particular PDE isoenzyme as opposed to another PDE isoenzyme, for example, the activity of a compound to inhibit a PDE V isoenzyme compared to the activity of the same compound to inhibit a PDE VI isoenzyme.
row,pIC50,SMILES
1,> 8.39,CCN1C(=O)c2c(nc(OC)n2Cc2ccc(OC)c(Br)c2)N2C[C@@H](Cc3ccccc3)N=C12 [Compound 3]
2,> 8.60,CCN1C(=O)c2c(nc(OC)n2Cc2ccc(O)cc2)N2C[C@@H](Cc3ccccc3)N=C12 [Compound 8]
3,> 8.39,CCN1C(=O)c2c(nc(C(N)=O)n2Cc2ccc(O)c(Cl)c2)N2C[C@@H](Cc3ccccc3)N=C12 [Compound 10]
4,> 8.80,CCOc1nc2c(n1Cc1ccc(O)c(Cl)c1)C(=O)N(CC)C1=N[C@H](Cc3ccccc3)CN12 [Compound 16]
5,> 8.80,CCN1C(=O)c2c(nc(OC)n2Cc2ccc(O)c(Br)c2)N2C[C@@H](Cc3ccccc3)N=C12 [Compound 18]
6,> 8.66,CCN1C(=O)c2c(nc(Br)n2Cc2ccc(O)c(Cl)c2)N2C[C@@H](Cc3ccc(F)cc3)N=C12 [Compound 21]

# The next lines start with the compound.
row,SMILES,pIC50
1,CCN1C(=O)c2c(nc(Br)n2Cc2ccc(OC)c(Br)c2)N2C[C@@H](Cc3ccccc3)N=C12 [Compound 1.3.2],> 8.39
2,CCOc1nc2c(n1Cc1ccc(OC)c(Cl)c1)C(=O)N(CC)C1=N[C@H](Cc3ccccc3)CN12 [Compound 1],> 8.66
3,CCN1C(=O)c2c(nc(OC)n2Cc2ccc(OC)c(Cl)c2)N2C[C@@H](Cc3ccccc3)N=C12 [Compound 2],> 8.80
4,CCN1C(=O)c2c(nc(Br)n2Cc2ccc(O)c(Br)c2)N2C1=N[C@@H]1CCC[C@@H]12 [Compound 4],> 8.80
5,CCN1C(=O)c2c(nc(OC)n2Cc2ccc(O)c(Br)c2)N2C1=N[C@@H]1CCC[C@@H]12 [Compound 5],> 8.80
6,CCN1C(=O)c2c(nc(OC)n2Cc2ccc(O)c(Cl)c2)N2C1=N[C@@H]1CCC[C@@H]12 [Compound 6],> 8.39
7,CCN1C(=O)c2c(nc(C(=O)NC)n2Cc2ccc(O)c(Cl)c2)N2C[C@@H](Cc3ccccc3)N=C12 [Compound 9],> 8.39
8,CCN1C(=O)c2c(nc(C(=O)OC)n2Cc2ccc(O)c(Cl)c2)N2C[C@@H](Cc3ccccc3)N=C12 [Compound 11],> 8.80
9,CCN1C(=O)c2c(nc(Br)n2Cc2ccc(O)c(Cl)c2)N2C[C@@H](Cc3ccccc3)N=C12 [Compound 12],> 8.39
10,CCN1C(=O)c2c(nc(Br)n2Cc2ccc(O)c(Br)c2)N2C[C@@H](Cc3ccccc3)N=C12 [Compound 13],> 8.39
11,CCN1C(=O)c2c(nc(Cl)n2Cc2ccc(O)cc2)N2C[C@@H](Cc3ccccc3)N=C12 [Compound 15],> 8.39
12,CCN1C(=O)c2c(nc(OC)n2Cc2ccc(O)c(Cl)c2)N2C[C@@H](Cc3ccccc3)N=C12 [Compound 17],> 8.80
13,CCOc1nc2c(n1Cc1ccc(O)c(Cl)c1)C(=O)N(CC)C1=N[C@H](C(C)C)CN12 [Compound 19],> 8.39
14,CCOc1nc2c(n1Cc1ccc(O)c(Br)c1)C(=O)N(CC)C1=N[C@H](Cc3ccccc3F)CN12 [Compound 22],> 8.39
15,CCN1C(=O)c2c(nc(Br)n2Cc2ccc(O)c(Br)c2)N2C[C@@H](Cc3cccc(F)c3)N=C12 [Compound 23],> 8.39
